In patent US9023788B2, “Methods compounds and pharmaceutical compositions for treating anxiety and mood disorders” (New York University, priority 2010, dated 2015):
“Also recorded” adds a separate entry of the source. Like-named read-outs stand apart in the source and are kept apart here. Marks after values point to notes of the source that are not given here.

Legend:
handling-stressed mice = test: Home cage activity after handling and injection stress; type: in vivo, mouse; details: acute i.p. dp6FNE 1 mg/kg in the presence of phentolamine; cirazoline 0.1 mg/kg; FIG. 3
Experimental: FIG. 3 depicts the effect of acute i.p. dp6FNE (1 mg/kg) or cirazoline (0.1 mg/kg), (both N=1), on home cage activity in terms of rearing and ambulation, Veh (N=12).
It is known that peripheral administration of α1-agonists without phentolamine impairs exploratory behavior in the open field (Yang, et al., J Pharmacol exp Ther 1990; 255: 1064-1070).

mice [1] = details: months of chronic treatment (Doze et al. 2009); cited from earlier work
mice [2] = details: months of chronic treatment (Doze et al. 2009); cited from earlier work; remark: listed apart in the source
brain α-adrenoceptors = details: cited from earlier work
mice [3] = details: given chronically in the drinking water; cited from earlier work
Swiss Webster male mice [4] = test: Acute forced swim test (Porsolt); type: in vivo, mouse
Experimental: A total of 420 Swiss Webster male mice (Taconic), 8-10 weeks old, were subjects. The animals were housed singly with nesting material for 5 d prior to surgery in standard size polycarbonate mouse cages (12.5×17×28 cm) at a room temperature of 22±1° C. under a 12 hr light/dark cycle (lights on 0500 hr). Food and water were available ad libitum.
Surgery: Mice, anesthetized with pentobarbital (70 mg/kg), were implanted stereotaxically with 26 ga cannula guides in the fourth cerebral ventricle (−5.9 mm to Bregma, 1 mm lateral, 3.9 mm ventral to skull surface) as described previously (Stone, et al., Brain Research (2009) 1291:21-31). All animals were given 10 days for recovery prior to infusions and behavioral testing.
(§1) Infusion procedure. All experiments were performed between 1000 and 1400 hr. […] A total of 350 n1 of solution was infused at 100 nl/min over a 3.5 min period with the cannula remaining in place for 30 seconds after infusion. The animal was then subjected to the behavioral tests described below making the interval between the start of infusion and start of behavioral test 4.5-5 min. […] All drugs were prepared freshly each day in saline.
Forced swim test: Separate groups of animals were used for each of the following behavioral tests. A modification of the Porsolt procedure for mice was used for the forced swim test (Porsolt, et al., Arch.int.Pharmacodyn.Ther. (1977) 229:327-336). […]

Swiss Webster male mice [5] = test: Tail suspension test; type: in vivo, mouse; details: for immobility versus vehicle: acute ivt. 6FNE or DEX, 10 mg/kg; for effect of coinfused antagonist on anti-immobility effect of 6FNE: 6FNE 3 nmoles + antagonist 1 nmole ivt.; for effect of antagonist alone on immobility (antagonist+vehicle versus vehicle-only): antagonist 1 nmole ivt.
Swiss Webster male mice [6] = test: LPS model of depression (anhedonia); type: in vivo, mouse
Experimental: 1LPS model of depression (anhedonia): A modification of the Frenois et al (2007) model of LPS-induced anhedonia in the mouse was used to obtain a non-motoric index of depressed behavior. In this model, trained mice show a marked decrease in preference for a sweet solution 24-48 h after a systemic dose of LPS (830 μg/kg, i.p.), a time when they have recovered from the sickness behavior and anorexia caused by the acute effects of the toxin. For the model, the animals were first implanted with 4th ventricular cannulas as above and, during the recovery period, trained to drink diluted sweetened condensed milk solution (Magnolia 1:3 v:v milk:tap water) by 15 min presentations every other day for 7-10 d. […] Animals given i.p. injections were dosed 14, 12 and 0.5 h prior to the last test.

Swiss Webster male mice [7] = test: Open field motor activity after ivt. infusion; type: in vivo, mouse; details: 15 min post infusion; 6FNE 3 nmoles ivt.
Experimental: Open field motor activity: Implanted mice were placed singly in an open field (46×46×33 cm clear Plexiglas) and permitted to explore freely and habituate for 60 min. The animals were then either left undisturbed in the field or removed and infused with either vehicle or 6FNE (3 nmoles) and replaced in the field for a further 15 min. For comparative purposes a further group of implanted animals, similarly habituated to the field, was given an i.p. injection of d-amphetamine (5 mg/kg) prior to the final 15 min exposure. Movement in the field was videorecorded and was subsequently rated blind for the number of quadrants entered as well as the amount of time spent not touching the walls (“time in the center of the field”).

[8] = system: Fos expression in LC, PVH, lateral septal nucleus and NAC; test: Fos immunohistochemistry in stress- and motivation-related brain regions; type: in vivo, mouse; details: 6FNE 3 nmoles ivt.
Experimental: At 70 min after drug infusion all animals were deeply anesthetized with a combination of isoflurane and urethane (2.2 g/kg, i.p.) and perfused intracardially with 4% paraformaldehyde for subsequent immunohistochemistry and histological examination of the cannula tip with respect to the 4th ventricle.
Immunohistochemistry: Methods used for single and double-label Fos and Fos+tyrosine hydroxylase immunohistochemistry have been described in detail elsewhere (Stone, et al., Brain Research (2009) 1291:21-31). In brief, at 70 min after drug infusion deeply anesthetized (isoflurane plus urethane, 2.2 g/kg) mice were perfused intracardially with saline (25 ml) and 4% paraformaldehyde (45 ml), and the sucrose-treated brains were sectioned at 35 p and stained either singly for Fos (PVH, lateral septal nucleus, shell of nucleus accumbens (NAC)) or doubly for Fos and tyrosine hydroxylase (LC). Rabbit anti-fos (Oncogene Science 1:20,000) and chicken anti-tyrosine hydroxylase (Novus Biologicals, 1:5,000) were primary antibodies. Single-label staining involved nickel intensified-diaminobenzidine localization of the secondary biotinylated antibody and avidin-biotin-peroxidase complex. Double-label staining involved the use of Alexa-488 labeled secondary anti-rabbit and Alexa-594 labeled secondary anti-chicken antibodies. […] In all sections, to preclude biasing in the placement of counting frames, large frames comprising the total two dimensional extent of the target structures were counted for every Fos-positive cell by ImageJ. Double-labeled LC cells were defined as those having a fluorescently labeled cytoplasm (TH) and nucleus (Fos) greater than twice background fluorescence.

Swiss Webster male mice [9] = test: Observation for sedation and signs of toxicity; type: in vivo, mouse; details: intracerebral 6FNE or peripheral dp6FNE, range of behavioral tests
Description: Sedation interferes with behavioral performance and is therefore a detrimental side effect to the treatment of major depressive illness in humans.
Although dp6FNE was designed to be a temporary treatment, it was of interest to determine how long it would remain effective if given repeatedly.

[10] = system: Fos expression in LC, PVH, lateral septal nucleus and NAC; details: stimulation or blockade of LC α1-receptors (Stone et al. 2011); cited from earlier work
[11] = in vivo; cited from earlier work
Swiss Webster male mice [12] = test: Repeated open space forced swim (RFS) test; details: for distance swum versus vehicle / immobility versus vehicle: acute ivt. 6FNE or DEX; for immobility versus vehicle: 10 mg/kg; for overall effect of antagonist pretreatment on distance swum / overall effect of antagonist pretreatment on immobility: prazosin 5 mg/kg or atipamezole 0.5 mg/kg i.p.
Experimental: In experiment on chronic administration, a daily dose of 0.5 mg/kg in the same vehicle was administered for 11 d.
as §1
In this procedure, mice are swum for 15-20 min/d for 4 d in rat tub cages (24×43×23 cm, w×h×l) filled with 13 cm high luke-warm water (32-34° C.) and thereafter once or twice a week. […] In the present experiment, the animals were matched on immobility level of the 4th swim into vehicle and drug groups and infused ivt. just prior to the 5th swim. Groups given i.p. injections were dosed initially 5 min after the 4th swim and finally 30 min prior to the 5th swim. Discs were rated as above on immobility and distance swum (number of quadrants entered).

[13] = system: cortical α1-adrenoceptors; details: prazosin 5 mg/kg; cited from earlier work
α2-adrenoceptors [14] = details: cited from earlier work
LC α1-adrenoceptors = test: Novel cage test after LC microinjection; type: in vivo, rat; details: for Gross movements: 15 min novel cage
α1-adrenoceptors = details: cited from earlier work
α2-adrenoceptors [15] = details: atipamezole 0.5 mg/kg; cited from earlier work
[16] = overall effect across depression tests
[17] = 5th swim, 6FNE ivt. peak dose, DMI subacute i.p. 10 mg/kg
[18] = 5th swim, DMI subacute i.p. 10 mg/kg
[19] = Outside LC (n = 23), 3 nmoles/side
[20] = Within LC (n = 25), 3 nmoles/side
[21] = entire within LC group vs vehicle, 3 nmoles/side

c1ccc(C2CC2)c(OCC2=NCCN2)c1 [cirazoline]
home cage exploration / behavioral inhibition after handling and injection stress (handling-stressed mice): not effective in reducing behavioral inhibition
anxiety measured by behavioral inhibition (mice [1]): failed to affect anxiety
anxiety measured by behavioral inhibition (mice [2]): failed to affect anxiety
agonist efficacy (brain α-adrenoceptors): partial agonists
antidepressant effect (mice [3]): significant antidepressant effects in the forced swim test

NCC(O)c1cc(O)c(O)cc1F (centres unmarked) [6FNE, 6-fluoronorepinephrine]
climbing duration, overall effect (Swiss Webster male mice [4]; ivt. 6FNE dose-response, one-way ANOVA): failed to show statistical significance
immobility versus vehicle (Swiss Webster male mice [4]; second swim, 6FNE ivt. peak dose 3 nmoles, DMI subacute i.p. 10 mg/kg): differed significantly from vehicle
immobility, % vehicle control (Swiss Webster male mice [5]; 6FNE ivt. 3 nmoles, DMI subacute i.p. 10 mg/kg): 24.7±7.8%
immobility versus vehicle (Swiss Webster male mice [5]; DMI subacute i.p. 10 mg/kg): equally effective; also recorded: significant overall reduction in immobility
sucrose preference (Swiss Webster male mice [6]; acute ivt. 6FNE 48 h after LPS 830 μg/kg i.p.): rescued by 6FNE
sucrose intake (Swiss Webster male mice [6]; acute ivt. 6FNE in LPS-pretreated animals): inverted-U-shaped increase
time in the center of the field (Swiss Webster male mice [7]): restored this behavior back to the level of the non-handled controls; also recorded: complete rescue
total quadrants entered (Swiss Webster male mice [7]): no change in activity compared to the non-handled animals; also recorded: completely rescued the activity
Fos expression in LC [8, 16]: significant overall reduction
Fos expression in PVH [8, 16]: significant overall reduction
Fos expression in lateral septal nucleus ([8]; p<0.05): overall increase
Fos expression in NAC ([8]; p<0.1): overall increase
sedation (Swiss Webster male mice [9]): no sedative effect
neural activity of the LC measured from c-Fos expression [10]: virtually complete cessation of the neural activity
agonist efficacy (brain α-adrenoceptors): only known selective full agonist
passage of the blood brain barrier / uptake by the brain [11]: does not pass the blood brain barrier
distance swum, % vehicle control (Swiss Webster male mice [12]; [17]): 193.4±22.8%
immobility, % vehicle control (Swiss Webster male mice [12]; [17]): 36.7±9.2%
distance swum versus vehicle (Swiss Webster male mice [12]; [18]): borderline increase in distance swum
immobility versus vehicle (Swiss Webster male mice [12]; [18]): only 6FNE was effective; also recorded: dose-dependently reduced immobility
antidepressant response compared with ivt PE (Swiss Webster male mice [12]; single ivt. infusion 0, 1, 3, 10 nmoles, Example 4, expected): more rapid or greater antidepressant response than PE

COc1cc2nc(N3CCN(C(=O)c4ccco4)CC3)nc(N)c2cc1OC [prazosin]
block of cortical α1-adrenoceptors by ex vivo binding [13]: 30%
overall effect of antagonist pretreatment on distance swum (Swiss Webster male mice [12]): significant overall decrease of distance swum
overall effect of antagonist pretreatment on immobility (Swiss Webster male mice [12]): significant overall increase of immobility
effect of antagonist alone on TST or RFS measures (Swiss Webster male mice [12]; prazosin alone 0.2 mg/kg): did not affect these measures

Cc1cccc([C@H](C)c2cnc[nH]2)c1C [dexmedetomidine]
immobility versus vehicle (Swiss Webster male mice [5]; DMI subacute i.p. 10 mg/kg): equally effective
immobility versus vehicle (Swiss Webster male mice [5]; DMI subacute i.p. 10 mg/kg, listed as DEX): significant dose-dependent decrease in immobility
affinity for respective receptor (α2-adrenoceptors [14]): low nanomolar affinities
distance swum versus vehicle (Swiss Webster male mice [12]; [18]): failed to have an overall significant effect
immobility versus vehicle (Swiss Webster male mice [12]; [18]): only 6FNE was effective
immobility versus vehicle (Swiss Webster male mice [12]; 5th swim, DMI subacute i.p. 10 mg/kg, listed as DEX): failed to have an overall significant effect on immobility
immobility at single dose (Swiss Webster male mice [12]; DEX 0.04 nmoles ivt.): borderline significant reduction in immobility

COc1cc2nc(N3CCN(C(=O)C4CCCO4)CC3)nc(N)c2cc1OC (centres unmarked) [terazosin]
Cage midline crosses (LC α1-adrenoceptors; [19]): 16.4 ± 1.5^c
Time immobile (min) (LC α1-adrenoceptors; [19]): 2.2 ± 0.5^c min
Gross movements (LC α1-adrenoceptors; [19]): 123.5 ± 7.9^c
Cage midline crosses (LC α1-adrenoceptors; [20]): 9.2 ± 2.0^b,e
Time immobile (min) (LC α1-adrenoceptors; [20]): 7.2 ± 1.6^b,d min
Gross movements (LC α1-adrenoceptors; [20]): 71.7 ± 11.7^a,d
TI- (LC α1-adrenoceptors; bilaterally injected animals): 7.4 ± 1.4 min
percent decrease of GMs with respect to vehicle (LC α1-adrenoceptors; bilaterally injected animals): 54.6±9.1%
percent decrease of cage Xs with respect to vehicle (LC α1-adrenoceptors; bilaterally injected animals): 53.7±12.1%
percent depression of GMs compared to mean of the vehicle group (LC α1-adrenoceptors; direct hits of LC): 63.5±7.2%
increase of TI (LC α1-adrenoceptors; [21]): 77 fold
reduction of GMs (LC α1-adrenoceptors; [21]): 54%
reduction of cage Xs (LC α1-adrenoceptors; [21]): 55%
percent depression of GMs compared to mean of the vehicle group (LC α1-adrenoceptors; injection within 200μ of LC): 54.0±7.5%
percent depression of GMs compared to mean of the vehicle group (LC α1-adrenoceptors; injection within 500μ of LC): 45.6±7.0%
TI- (LC α1-adrenoceptors; unilaterally injected animals): 6.1 ± 1.7 min
percent decrease of GMs with respect to vehicle (LC α1-adrenoceptors; unilaterally injected animals): 50.5±11.1%
percent decrease of cage Xs with respect to vehicle (LC α1-adrenoceptors; unilaterally injected animals): 52.1±16.5%
effect of coinfused antagonist on anti-immobility effect of 6FNE (Swiss Webster male mice [5]): significantly increased immobility when coinfused with 6FNE
effect of antagonist alone on immobility (antagonist+vehicle versus vehicle-only) (Swiss Webster male mice [5]): significantly increased immobility in the vehicle-treated animals
neural activity of the LC measured from c-Fos expression [10]: excitation of virtually every neuron of the nucleus
affinity for respective receptor (α1-adrenoceptors): low nanomolar affinities

CCC1(c2cnc[nH]2)Cc2ccccc2C1 [atipamezole]
effect of coinfused antagonist on anti-immobility effect of 6FNE (Swiss Webster male mice [5]): totally abolished the effect of 6FNE
effect of antagonist alone on immobility (antagonist+vehicle versus vehicle-only) (Swiss Webster male mice [5]): had no effect in this group
blockade of sedative and hypothermic effects of a low dose of dexmedetomidine (α2-adrenoceptors [15]): approximately 70%
affinity for respective receptor (α2-adrenoceptors [14]): low nanomolar affinities
overall effect of antagonist pretreatment on distance swum (Swiss Webster male mice [12]): no significant overall action
overall effect of antagonist pretreatment on immobility (Swiss Webster male mice [12]): no significant overall effect
